Here are results for 21 molecules from US7148028B2, “Methods and means relating to atherosclerosis” (priority 2001, dated 2006).

For test [1], the system named is anti-Chlamydia abzymes. It is filed as biochemical, human. Set-up: key to In-vitro Inhibition: + = inhibition; − = no inhibition.
For another test, the system named is lesion IgG. The test is described as follows: LDL peroxidation by lesion IgG (MDA). It is filed as biochemical, human.
Test [2] has as its system anti-Chlamydia abzymes. Type of test: in vivo, human. The following applies: for abzyme activity of individuals, + aspirin: self-reported aspirin takers, one value per individual.
Test [3] concerns Chlamydia pneumoniae or Chlamydia Psittaci. Type of test: biochemical.
The nature of test [4]: Clinical condition, modified Rose-Blackburn Questionnaire. Type of test: in vivo, human. The text has this:
The progression of the clinical condition of the patients was monitored by the use of the modified Bruce Protocol for treadmill exercise/stress ECG testing and on the Rose-Blackburn Questionnaire (Cardiovascular Survey Methods. WHO, Geneva, 1968)

Where [5] appears, read: 10 μM of each agent, control 24.3.

Where “and” joins values, the source holds several entries; their conditions need not be identical. Equal entries are not always repeated. Entries after “also recorded” stand apart in the source; their conditions may differ. Structures can show the parent of a compound that is named as a salt. Where two headings read alike, the source gives them in different places.

On to `CCN(CC)C(=S)S` [DDC], for which, in the test on anti-Chlamydia abzymes [1], the “In-vitro Inhibition” value is on record as “+”. Also, the “Result (inhibition of anti-Chlamydia abzymes)” value in the test with anti-Chlamydia abzymes [1] (10 μM of each agent) is reported as “Positive”. For the same molecule, the “Lipid oxidising activity of anti-Chlamydia abzymes” value (shortened to “Lipid oxidising activity”) in the test on anti-Chlamydia abzymes [1] (setting [5]) is 0 μM MDA/ml.
As for `O=C(O)c1ccccc1` [benzoic acid], in the test on lesion IgG (pH 5.6), the “Level of MDA production by 0.82 μg of lesion IgG” value (“Level of MDA production” below) stood at 0 µM.
In the case of `O=[N+]([O-])OCC(CO[N+](=O)[O-])O[N+](=O)[O-]` [Glyceryl Trinitrate], the Anti-Abzyme accivity in the test on anti-Chlamydia abzymes [1] (4.4 μM, control 21.7) is given as 0 μM MDA/ml; with anti-Chlamydia abzymes [1] (22 μM, control 21.7), 0 μM MDA/ml; in the test on anti-Chlamydia abzymes [1] (44 μM, control 21.7), 0 μM MDA/ml; in the test on anti-Chlamydia abzymes [1] (220 μM, control 21.7), 0 μM MDA/ml.
For the molecule `CC(=O)Oc1ccccc1C(=O)O` [Aspirin, acetylsalicylic acid], in the test on anti-Chlamydia abzymes [1] (10 μM of each agent), the “Result (inhibition of anti-Chlamydia abzymes)” value was “Positive”. Moreover, the “Lipid oxidising activity” value in the test on anti-Chlamydia abzymes [1] (setting [5]) worked out at 6.2 μM MDA/ml. Besides, the “abzyme activity after a week” value with anti-Chlamydia abzymes [2] (250 mg aspirin daily, the other two CHD patients) was “undetectably low level”. Also, in the test on anti-Chlamydia abzymes [2] (Therapy Group D, 250 mg daily), the “abzyme activity, aspirin alone” value is recorded as “reduction in the abzyme activity but to a lesser degree than observed with the combination”. Also, the “individuals positive for abzymes / individuals, + aspirin” value was 1/6 in the test with anti-Chlamydia abzymes [2] (stable angina class I), 4/15 with anti-Chlamydia abzymes [2] (stable angina class II), 6/10 with anti-Chlamydia abzymes [2] (stable angina class III) and 6/7 in the test on anti-Chlamydia abzymes [2] (unstable angina IV). The “percentage positive for abzymes, + aspirin” value with anti-Chlamydia abzymes [2] (stable angina class I) stood at 17%; with anti-Chlamydia abzymes [2] (stable angina class II), 27%; with anti-Chlamydia abzymes [2] (stable angina class III) it was 60%; in the test with anti-Chlamydia abzymes [2] (unstable angina IV), 86%. In addition, the “abzyme activity, group mean, + aspirin” value turned out to be 10.0 with anti-Chlamydia abzymes [2] (stable angina class I, n = 6, without aspirin 30.0) and 9.2 with anti-Chlamydia abzymes [2] (stable angina class II, n = 15, without aspirin 32.2). Moreover, the “abzyme activity of individuals, + aspirin” value with anti-Chlamydia abzymes [2] (stable angina class I) was 5 and 45 and 0 (3×) and 10; with anti-Chlamydia abzymes [2] (stable angina class II), 5 (4×) and 10 (2×) and 0 (4×) and 25 and 3.3 and 30; with anti-Chlamydia abzymes [2] (stable angina class III), 0 (3×) and 45 and 5 and 35 and 15 and 30 and 20; in the test with anti-Chlamydia abzymes [2] (unstable angina IV) it was 130 and 70 and 0 and 37 and 90 and 100 and 180.
As for `CCC[C@@H]1C[C@@H](C(=O)N[C@@H]([C@H]2O[C@H](SC)[C@H](O)[C@@H](O)[C@H]2O)[C@@H](C)O)N(C)C1` [Lincomycin Hydrochloride], the Anti-Abzyme accivity in the test with anti-Chlamydia abzymes [1] (6.5 μM, control 21.7) is given as 28.5 μM MDA/ml; in the test on anti-Chlamydia abzymes [1] (13 μM, control 21.7), 30.3 μM MDA/ml.
For `CC(C)NCC(O)COc1cccc2ccccc12` (stereo not shown) [Propranolol Hydrochloride], in the test with anti-Chlamydia abzymes [1] (Hydrochloride), the Anti-Abzyme accivity was 21.3 μM MDA/ml and 18.3 μM MDA/ml.
Turning to `O=C(O)c1ccccn1` [Picolinic acid], in the test with anti-Chlamydia abzymes [1] (10 μM of each agent), the “Result (inhibition of anti-Chlamydia abzymes)” value is “Positive”. Further, in the test on anti-Chlamydia abzymes [1] (setting [5]), the “Lipid oxidising activity” value amounted to 0 μM MDA/ml.
The corresponding values for `[N-]=[N+]=[N-].[Na+]` [NaN1] are “Positive” and 0 μM MDA/ml.
In the case of Triton X-100, in test [3], the “development of lipid oxidation reaction after treatment of Chlamydia with chaotropic agents” value (“development of lipid oxidation reaction” for short) is “completely abrogated” and the “oxidation of the lipids in the bacteria by the extracted abzymes after detergent treatment” value is on record as “abolished”.
Turning to `C=O` [formalin], the “lipid oxidising reaction with treated Chlamydia samples” value (“lipid oxidising reaction” below) in test [3] is “no lipid oxidising reaction”.
Regarding `O=C[O-].[Na+]` [sodium formate], the “Level of MDA production” value with lesion IgG (+0.1 M antioxidant, LDL 480 μg of protein, 16 h 37° C. pH 5.6, control 0.49 ± 0.023) was 0 µM.
Igepal CA-630: in test [3], the “development of lipid oxidation reaction” value is “completely abrogated” and the “oxidation of the lipids in the bacteria by the extracted abzymes after detergent treatment” value is reported as “abolished”.
For `CC[C@H]1OC(=O)[C@H](C)[C@@H](O[C@H]2C[C@@](C)(OC)[C@@H](O)[C@H](C)O2)[C@H](C)[C@@H](O[C@@H]2O[C@H](C)C[C@H](N(C)C)[C@H]2O)[C@](C)(O)C[C@@H](C)CN(C)[C@H](C)[C@@H](O)[C@]1(C)O` [Azithromycin], in the test on anti-Chlamydia abzymes [1], the “in vitro inhibition of abzyme activity” value is “strong in vitro inhibitor of abzyme activity”. Moreover, in the test with anti-Chlamydia abzymes [1] (in DMSO, 5 μM, control 61, DMSO effect deducted), the “Lipid oxidising activity” value is on record as 0 μM MDA/ml. The “Clinical condition After 15 days of treatment” value in test [4] (Table 17, anti-microbial agent only, single patients) is reported as “angina class II;; also recorded: Stable condition;”. In test [4] (before: A 19.4 ± 1.79, B 20.4 ± 1.24, C 18.6 ± 0.81), the “Score by modified Rose-Blackburn Questionnaire, 60 days after start of the treatment, group mean” value is on record as 14.4 ± 1.14. The “Abzyme activity after 15 days / two weeks” value in the test on anti-Chlamydia abzymes [2] (Example 8, stable angina patients) is recorded as “reduced abzyme activity”. In addition, in the test with anti-Chlamydia abzymes [2] (Therapy Group A, before 47.5), the “Anti-Chlamydia abzyme activity, 45 days, group mean” value turned out to be 7.4 μM MDA/ml and the “Anti-Chlamydia abzyme activity, 60 days, group mean” value is recorded as 1.6 μM MDA/ml.
Regarding Nadroparin Calcium, the Anti-Abzyme accivity is on record as 20.5 μM MDA/ml in the test on anti-Chlamydia abzymes [1] (5 UI, control 21.7) and 12.8 μM MDA/ml in the test on anti-Chlamydia abzymes [1] (65 UI, control 21.7).
For the molecule Heparin, the Anti-Abzyme accivity in the test on anti-Chlamydia abzymes [1] (0.1 mg/ml, control 21.7) stood at 19.7 μM MDA/ml.
On to `O=C(O)CN(CCN(CC(=O)O)CC(=O)O)CCN(CC(=O)O)CC(=O)O` [DTPA], for which the “Result (inhibition of anti-Chlamydia abzymes)” value with anti-Chlamydia abzymes [1] (10 μM of each agent) is on record as “Negative”.
For `CCCCCCCCCCCCOS(=O)(=O)[O-].[Na+]` [SDS], the “lipid oxidising reaction” value in test [3] is “no lipid oxidising reaction”.
Turning to `O=[N+]([O-])O[C@H]1CO[C@H]2[C@@H]1OC[C@H]2O[N+](=O)[O-]` [Isosorbide Dinitrate], the Anti-Abzyme accivity in the test on anti-Chlamydia abzymes [1] (42 μM, control 21.7) is on record as 0 μM MDA/ml; with anti-Chlamydia abzymes [1] (211 μM, control 21.7) it was 0 μM MDA/ml.
On to `C[S+](C)[O-]` [DMSO], for which, in test [3], the “development of lipid oxidation reaction” value was “completely abrogated”. Further, the “Level of MDA production” value in the test on lesion IgG (+1% antioxidant, LDL 480 μg of protein, control 0.49 ± 0.023) was determined as 0 µM.
As to `CC(C)(S)[C@@H](N)C(=O)O` [Penicillamine], the “Result (inhibition of anti-Chlamydia abzymes)” value in the test on anti-Chlamydia abzymes [1] (10 μM of each agent) is “Positive”. The “Lipid oxidising activity” value with anti-Chlamydia abzymes [1] (setting [5]) was 0 μM MDA/ml.
Consider `N.N.O=S(=O)(O)O` [ammonium sulphate], for which the “lipid oxidising reaction” value in test [3] is reported as “no lipid oxidising reaction”.
